Data reported in US6461997B1, “Triazole sulfones having herbicidal activity” (Monsanto Technology LLC, priority 1999, dated 2002).

What follows are compounds tested on STEME (common chickweed) (assay: Pre-emergence herbicidal activity, cool season). Conditions: lowest tested rate with 80% or greater inhibition; rates 300, 100, 30, 10 g/ha; about 14 days.
Type: in vivo, Stellaria media
In short: (§1)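 Seeds sown in sterilised fertilised topsoil received surface-applied compound in 50:50 acetone/water, typically at 300, 100, 30 and 10 g/ha, then greenhouse-grown at 30/21° C (warm-season species) or 18/13° C (cool-season species). Percent inhibition versus untreated plants was scored at about 14 days, giving GR80; an asterisk marks activity short of 80% at the top rate.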
With `CCN(CC)C(=O)n1cnc(S(=O)(=O)C(F)(F)C(F)(F)Br)n1` [Example 4] the “Pre-emergence activity GR80, STEME” value was 10 g/ha.
With `CCN(CC)C(=O)n1cnc(S(=O)(=O)C(F)(F)F)n1` [Example 2] the “Pre-emergence activity GR80, STEME” value was 10 g/ha.

What follows are compounds tested on DATST (jimsonweed) (assay: Pre-plant incorporated (PPI) herbicidal activity, warm season). Conditions: PPI application, 30 g/ha.
Type: in vivo, Datura stramonium
Protocol: In another set of tests, the pre-plant incorporated (PPI) activity of compounds of this invention was evaluated on the same species as for the pre-emergence tests described above. In the PPI tests the following procedure, designed to simulate PPI application, was used.
(§2) A pre-prepared topsoil mixture (described above) was placed in a pot and compacted to a depth of 1.0 to 1.25 cm from the top of the pot. Seeds of each of several monocotyledonous and dicotyledonous annual plant species were placed on top of the soil. A sufficient quantity of soil to cover the seeds and level fill the pot was weighed into an open container. A known amount of the test compound was dissolved or suspended in an organic solvent and applied by spraying to this cover soil. The cover soil was thoroughly mixed to distribute the test compound throughout the cover soil, and was then applied as a cover layer over the seeds. Untreated soil was used as a cover layer for control pots. After treatment the plants were placed in a greenhouse where they received 0.64 cm of overhead irrigation. All subsequent watering consisted of a light overhead mist and/or subirrigation as needed for germination and growth. Tables 9 and 10 below relate to warm season plant species which were placed after pre-emergence treatment in a greenhouse with a 30/21° C. day/night temperature regime. Tables 11 and 12 below relates to cool season plant species placed after pre-emergence treatment in a greenhouse or growth chamber with an 18/13° C. day/night temperature regime. Only the compounds of Examples 1, 6, 8, 11, 13 and 15-20 were included in PPI tests.
(§3) Approximately 14 days after planting and treating, the plants were observed and herbicidal efficacy recorded as percent inhibition by comparison with untreated plants.
With `CCN(CC)C(=O)n1cnc(S(=O)(=O)C(F)(F)C(F)(F)Br)n1` [Example 4] the “Percent inhibition DATST” value was 0%.
For `CCN(CC)C(=O)n1cnc(S(=O)(=O)C(F)(F)F)n1` [Example 2], the “Percent inhibition DATST” value was 0%.

Same assay, conditions: PPI application, 100 g/ha
For `CCN(CC)C(=O)n1cnc(S(=O)(=O)C(F)(F)C(F)(F)Br)n1` [Example 4], the “Percent inhibition DATST” value was 0%.
For `CCN(CC)C(=O)n1cnc(S(=O)(=O)C(F)(F)F)n1` [Example 2], the “Percent inhibition DATST” value was 10%.

Same assay, conditions: PPI application, 300 g/ha
For `CCN(CC)C(=O)n1cnc(S(=O)(=O)C(F)(F)C(F)(F)Br)n1` [Example 4], the “Percent inhibition DATST” value was 40%.
With `CCN(CC)C(=O)n1cnc(S(=O)(=O)C(F)(F)F)n1` [Example 2] the “Percent inhibition DATST” value was 80%.

Same assay, conditions: PPI application, 900 g/ha
`CCN(CC)C(=O)n1cnc(S(=O)(=O)C(F)(F)C(F)(F)Br)n1` [Example 4] was tested, and the “Percent inhibition DATST” value was 75%.
With `CCN(CC)C(=O)n1cnc(S(=O)(=O)C(F)(F)F)n1` [Example 2] the “Percent inhibition DATST” value was 70%.

Each compound was assayed on SINAR (wild mustard) (assay: Pre-emergence herbicidal activity, cool season). Conditions: lowest tested rate with 80% or greater inhibition; rates 300, 100, 30, 10 g/ha; about 14 days.
Type: in vivo, Sinapis arvensis
In short: as §1
`CCN(CC)C(=O)n1cnc(S(=O)(=O)C(F)(F)C(F)(F)Br)n1` [Example 4] was tested, and the “Pre-emergence activity GR80, SINAR” value was 30 g/ha.
With `CCN(CC)C(=O)n1cnc(S(=O)(=O)C(F)(F)F)n1` [Example 2] the “Pre-emergence activity GR80, SINAR” value was 30 g/ha.

Each compound was assayed on rice (ORYSA) (assay: Selectivity test, PPI, warm season crop). Conditions: PPI application, 30 g/ha.
Type: in vivo, Oryza sativa
Protocol: as §2, §3
Additional pre-emergence and PPI tests were conducted by the procedures described above, on warm and cool season weed species in the presence of crop species, to assess herbicidal selectivity. Crop species included in warm season tests were corn (Zea mays, ZEAMX), rice (Oryza sativa, ORYSA) and soybean (Glycine max, GLYMX). Crop species included in cool season tests were wheat (Triticum aestivum, TRZAW), barley (Hordeunm vulgare, HORVX) and oilseed rape (Brassica napus, BRSNS).
Tables 15 and 16 relate to pre-emergence and PPI tests respectively on warm season species. Table 17 relates to pre-emergence tests on cool season species.
`CCN(CC)C(=O)n1cnc(S(=O)(=O)C(F)(F)C(F)(F)Br)n1` [Example 4] was tested, and the “Percent inhibition ORYSA” value was 0%.
For `CCN(CC)C(=O)n1cnc(S(=O)(=O)C(F)(F)F)n1` [Example 2], the “Percent inhibition ORYSA” value was 0%.

Same assay, conditions: PPI application, 100 g/ha
With `CCN(CC)C(=O)n1cnc(S(=O)(=O)C(F)(F)C(F)(F)Br)n1` [Example 4] the “Percent inhibition ORYSA” value was 0%.
For `CCN(CC)C(=O)n1cnc(S(=O)(=O)C(F)(F)F)n1` [Example 2], the “Percent inhibition ORYSA” value was 0%.

Same assay, conditions: PPI application, 300 g/ha
In the case of `CCN(CC)C(=O)n1cnc(S(=O)(=O)C(F)(F)C(F)(F)Br)n1` [Example 4], the “Percent inhibition ORYSA” value is reported as 0%.
For `CCN(CC)C(=O)n1cnc(S(=O)(=O)C(F)(F)F)n1` [Example 2], the “Percent inhibition ORYSA” value was 0%.

Same assay, conditions: PPI application, 900 g/ha
`CCN(CC)C(=O)n1cnc(S(=O)(=O)C(F)(F)C(F)(F)Br)n1` [Example 4] was tested, and the “Percent inhibition ORYSA” value was 20%.
For `CCN(CC)C(=O)n1cnc(S(=O)(=O)C(F)(F)F)n1` [Example 2], the “Percent inhibition ORYSA” value was 30%.

These compounds were tested on CHEAL (common lambsquarters) (assay: Pre-emergence herbicidal activity, warm season). Conditions: GR80 = lowest tested rate (300, 100, 30, 10 g/ha) with 80% or greater inhibition; approx. 14 days after treating; 30/21° C.
Type: in vivo, Chenopodium album
In short: as §1
In the case of `CCN(CC)C(=O)n1cnc(S(=O)(=O)C(F)(F)C(F)(F)Br)n1` [Example 4], the “Pre-emergence activity (GR80) CHEAL” value is reported as 30 g/ha.
In the case of `CCN(CC)C(=O)n1cnc(S(=O)(=O)C(F)(F)F)n1` [Example 2], the “Pre-emergence activity (GR80) CHEAL” value is reported as 100 g/ha.

What follows are compounds tested on ECHCG (barnyardgrass) (assay: Pre-emergence herbicidal activity, warm season). Conditions: GR80 = lowest tested rate (300, 100, 30, 10 g/ha) with 80% or greater inhibition; approx. 14 days after treating; 30/21° C.
Type: in vivo, Echinochloa crus-galli
In short: as §1
`CCN(CC)C(=O)n1cnc(S(=O)(=O)C(F)(F)C(F)(F)Br)n1` [Example 4] was tested, and the “Pre-emergence activity (GR80) ECHCG” value was 100 g/ha.
In the case of `CCN(CC)C(=O)n1cnc(S(=O)(=O)C(F)(F)F)n1` [Example 2], the “Pre-emergence activity (GR80) ECHCG” value is reported as 30 g/ha.
